Data set [1] is described as follows: Fluorescence at pH 7.4 vs 5.0 of sensor saturated with glutamate. Here is the method: Next, the sensor was saturated with 300 mM glutamate in order to mimic vesicular conditions. The fluorescence intensity of the bound complex was then monitored between the pH values of 5 and 7.4, the acidities associated with the synaptic vesicle and synaptic cleft, respectively. An excitation wavelength of 488 nm was used because it is far enough to the red to ensure that only the bound, deprotonated sensor was excited. It is also a common wavelength used in fluorescence microscopy cell studies. The fluorescence intensity increased for all sensors upon basification from pH 5 to 7.4, however the sensors with the highest pKa values gave the greatest enhancements.
(§1) Table 1 summarizes the spectroscopic properties of the tested compounds in pH varying environments, mimicking the vesicular and synaptic cleft conditions.

Data set [2] is described as follows: Spectroscopic properties of unbound sensors. It is filed as physicochemical. Set-up: λmax (GH) / λmax (G-): unit not given here. The conditions noted are these: for λem (ex: 488 nm): excitation 488 nm; for λmax (G-) / λmax (GH): unbound sensor; for λmax (G-): deprotonated form G-; for λmax (GH): protonated form GH. How it is done: (§2) The spectroscopic properties of several exemplary inventive sensors have been examined, along with the starting compound 1, as 7-hydroxycoumarins are well known for their pH-sensitivity. First, the acidity of the sensors was discerned by performing pH titrations where aliquots of aqueous HCl were added to a buffered solution of the sensor and the absorbance and fluorescence were monitored. The pKa of the pH-sensitive unit is related to the donating ability of the sulfonamide substituent. ES517 has a dimethylamino-substituent on the sulfonamide which is the best electron-donor into the sulfonyl motif. This makes deprotonation of the N—H proton located at the 7-position of the coumarin core the least favorable and therefore the least acidic. The pH and fluorescence intensity data were fit to a pH isotherm and the pKa was determined to be 6.3. As the donating ability of the sulfonamide substituent into the sulfonyl motif worsened, the acidity of the N—H proton located at the 7-position of the coumarin core increased. The aromatic substituents are the least electron donating substituents into the sulfonyl motif which explains the greater acidity. By using a single coupling reaction, the pKa of the sensor may be tuned to fit the parameters of the experiment.
as §1

Data set [3] is described as follows: pH titration of sensor (absorbance and fluorescence monitored), pKa. It is filed as physicochemical. The following applies: buffered solution of the sensor; unbound sensor; pH and fluorescence intensity data fit to a pH isotherm. How it is done:
as §2

A short description of data set [4]: Binding study (fluorescence titration) of ES517 with dopamine.
The nature of data set [5]: Binding study (fluorescence titration) of ES517 with norepinephrine.
Data set [6] is described as follows: Fluorescence at pH 7.4 vs 5.0 of ES517 saturated with GABA. The conditions noted are these: ES517 20 μM saturated with 300 mM GABA. The text has this:
(§3) The ES517 was further analyzed for binding and spectroscopic properties with the common neurotransmitters other than glutamate released upon exocytosis. […] The aromatic neurotransmitters dampened the fluorescence turn-on response of the inventive sensors due to the electron-rich nature of catecholamines (norepinephrine and dopamine) and indoleamines (serotonin).

Data set [7] is described as follows: Binding study (fluorescence titration) of ES517 with glutamate. Here is the method: While low, this binding constant is believed to be preferred for reversible binding due to the high millimolar concentration of glutamate in a vesicle (˜300 mM).
Data set [8] in a line: Fluorescence at pH 7.4 vs 5.0 of ES517 saturated with norepinephrine. The following applies: ES517 20 μM saturated with 100 mM norepinephrine.
Description: as §3

The nature of data set [9]: Binding study (fluorescence titration) of ES517 with serotonin.
A short description of data set [10]: pKa and absorbance of the bound sensor (ES517 saturated with glutamate) over a wide pH range. It is filed as physicochemical. From the text: ES517 was saturated with glutamate and the spectroscopic properties measured over a wide pH range. The protonated form of the bound sensor (FIG. 4, structure B) absorbed at 368 nm. […] The 428 nm band was assigned to the unbound deprotonated form of the sensor (structure C). The 458 nm band therefore represents the bound, deprotonated sensor (structure D). The plot of pH vs. intensity was fit to a pH isotherm and the pKa determined to be 6.3.

A short description of data set [11]: Fluorescence at pH 7.4 vs 5.0 of ES517 saturated with glycine. The following applies: ES517 20 μM saturated with 300 mM glycine.
Description: as §3

Data set [12] in a line: Binding study (fluorescence titration) of ES517 with GABA.
The nature of data set [13]: Binding study (fluorescence titration) of ES517 with glycine.
Data set [14] can be described thus: Fluorescence at pH 7.4 vs 5.0 of ES517 saturated with dopamine. The conditions noted are these: ES517 20 μM saturated with 100 mM dopamine.
Description: as §3

Where [15] appears, read: sensor saturated with 0.3M glutamate, intensities monitored at pH 5.0 and 7.4.
Setting [16] is: ES517 20 μM, buffered, pH 7.4, ±10% error.
[17] abbreviates: fluorescence enhancement upon binding at pH 7.4, λem = 517 nm.

Molecules are shown by their SMILES. Marks after values point to notes of the source that are not given here.

Here are results for four compounds from US9862697B2, “pH-sensitive fluorescent sensors for biological amines” (The Curators of the University of Missouri, priority 2013, dated 2018).

In the case of `CS(=O)(=O)Nc1ccc2c(-c3ccccc3)c(C=O)c(=O)oc2c1`, the “IpH 7.4/IpH 5” value in data set [1] (setting [15]) is given as 5.5. Further, in data set [2], the λem (ex: 488 nm) stood at 489 nm, the “λmax (G-)” value is 420 and the “λmax (GH)” value was found to be 365. In [3], the pKa was found to be 5.9.
For the compound `O=Cc1c(-c2ccccc2)c2ccc(NS(=O)(=O)c3cccs3)cc2oc1=O`, the “IpH 7.4/IpH 5” value in data set [1] (setting [15]) stood at 2.5. Also, in data set [2], the λem (ex: 488 nm) stood at 494 nm, the “λmax (G-)” value is 416 and the “λmax (GH)” value came to 366. The compound also gave a pKa in [3] of 5.2.
Taken in the same sequence, the figures for `O=Cc1c(-c2ccccc2)c2ccc(O)cc2oc1=O` were 3.3, 468 nm, 420, 368 and 5.8.
On to `CN(C)S(=O)(=O)Nc1ccc2c(-c3ccccc3)c(C=O)c(=O)oc2c1` [ES517], for which the “IpH 7.4/IpH 5” value in data set [1] (ES517 20 μM saturated with 300 mM glutamate, fluorescence at pH 7.4 vs. 5.0) is 12^d; in [1] (setting [15]) it was 12; in [6], 11 ^d; in [8], 5.3 ^e; in data set [11], 10 ^d; in data set [14], 5.5 ^e. For the same compound, the Ka in data set [4] (setting [16]) amounted to 55 M⁻¹; in data set [5] (setting [16]) it was 49 M⁻¹; in [7] (glutamate, ES517 20 μM, 50 mM bis-tris propane, 50 mM Na2S2O3, 1% DMSO, pH 7.4, ±10% error) it was 8.6 M⁻¹; in data set [9] (setting [16]), 54 M⁻¹; in [12] (setting [16]), 8.3 M⁻¹; in data set [13] (setting [16]) it was 9.2 M⁻¹. For the same compound, the Isat/I0 came to 10 in data set [4] (setting [17]); 14 in data set [5] (setting [17]); 12 in data set [7] (glutamate, fluorescence enhancement upon binding at pH 7.4, Isat from theoretical max of binding isotherm, λem = 517 nm); 0.5 in [9] (setting [17]); 27 in data set [12] (setting [17]); 25 in data set [13] (setting [17]). Moreover, the “fluorescence enhancement upon binding to glutamate” value in data set [7] (titration with glutamate, excitation 488 nm) is 12 fold. For the same compound, the “absorbance of protonated form of the bound sensor (structure B)” value in data set [10] is 368 nm. Also, the “absorbance band of bound, deprotonated sensor (structure D)” value in data set [10] (upon deprotonation) came out at 458 nm. The “absorbance band of unbound deprotonated form of the sensor (structure C)” value in [10] (upon deprotonation) is 428 nm. The compound further returned a λem (ex: 488 nm) in [2] of 498 nm. For the same compound, in data set [2], the “λmax (G-)” value is reported as 419. Also, in data set [2], the “λmax (GH)” value stood at 368. The compound further displayed a pKa in data set [3] of 6.3.
